The values that follow are results of earlier work, collected in patent US20070053892A1, “Methods and kits for co-administration of nutritional supplements” (Everett Laboratories, Inc., priority 2005, published 2007).

For data set [1] the following is noted: patients with hypertension.
The conditions of data set [2]: patients with congestive heart failure.
For data set [3] the following is noted: patients with ischemic heart disease.
The conditions of data set [4]: patients with cardiomyopathy.

Molecules are shown by their SMILES.

With `COC1=C(OC)C(=O)C(C/C=C(\C)CC/C=C(\C)CC/C=C(\C)CC/C=C(\C)CC/C=C(\C)CC/C=C(\C)CC/C=C(\C)CC/C=C(\C)CC/C=C(\C)CCC=C(C)C)=C(C)C1=O` [CoQ10, coenzyme Q10], in data set [1], the blood pressure entry is “significantly reduce blood pressure”. Further, the “myocardial metabolic function, blood pressure, myocardial thickness” value in data set [2] was “improve myocardial metabolic function, reduce blood pressure, and reduce myocardial thickness”. In data set [3], the “magnitude and rate of clinical improvement” value was “enhances both the magnitude and rate of clinical improvement”. Besides, the “cardiac function including ejection fraction and cardiac output” value in data set [4] is listed as “significant improvement in cardiac function”.
